Source: ChEMBL document CHEMBL1629541, “Synthesis and structure-activity relationships of aza- and diazabiphenyl analogues of the antitubercular drug (6S)-2-nitro-6-{[4-(trifluoromethoxy)benzyl]oxy}-6,7-dihydro-5H-imidazo[2,1-b][1,3]oxazine (PA-824)” (J Med Chem, 2010)
≈ marks a conversion by molar mass, not a printed value.

How the values were obtained:
[1] = AUClast in Sprague-Dawley rat at 5 mg/kg, iv administered as single dose; format: ADME, organism-based; design: time 0 - last, dose 5 mg/kg, route intravenous; conditions: plasma
[2] = test system: Mycobacterium tuberculosis; experiment: microbe, parasite or virus in culture; conditions: H37Rv
[3] = AUC (0-infinity) in CD1 mouse plasma at 40 mg/kg, po administered as single dose; format: ADME, organism-based; design: time infinity, dose 40 mg/kg, route oral
physchem [4] = conditions: water, pH 1
Description: Solubility of the compound in water at pH 1.0 by HPLC

[5] = Thermodynamic solubility in aqueous buffer at pH 7.4 at 20 degC by HPLC; format: physicochemical
[6] = AUC (0-infinity) in CD1 mouse lung at 40 mg/kg, po administered as single dose; format: ADME, organism-based; design: time infinity, dose 40 mg/kg, route oral
[7] = Tmax in Sprague-Dawley rat at 20 mg/kg, po administered as single dose; format: ADME, organism-based; design: dose 20 mg/kg, route oral; conditions: in vivo
[8] = Cmax in Sprague-Dawley rat at 20 mg/kg, po administered as single dose; format: ADME, organism-based; design: dose 20 mg/kg, route oral; conditions: in vivo
[9] = Thermodynamic solubility in aqueous buffer at pH 1 at 20 degC by HPLC; format: physicochemical; conditions: for solubility thermodynamic: aqueous buffer
[10] = Tmax in Sprague-Dawley rat at 5 mg/kg, iv administered as single dose; format: ADME, organism-based; design: dose 5 mg/kg, route intravenous; conditions: in vivo
[11] = Cmax in CD1 mouse lung at 40 mg/kg, po administered as single dose; format: ADME, organism-based; design: dose 40 mg/kg, route oral
in vitro [12] = conditions: human, liver microsomes
Description: Metabolic stability in human liver microsomes assessed as compound remaining after 1 hr

[13] = Half life in CD1 mouse lung at 40 mg/kg, po administered as single dose; format: ADME, organism-based; design: dose 40 mg/kg, route oral
[14] = Cmax in Sprague-Dawley rat at 5 mg/kg, iv administered as single dose; format: ADME, organism-based; design: dose 5 mg/kg, route intravenous; conditions: in vivo
[15] = AUClast in Sprague-Dawley rat at 20 mg/kg, po administered as single dose; format: ADME, organism-based; design: time 0 - last, dose 20 mg/kg, route oral; conditions: plasma
[16] = Oral bioavailability in Sprague-Dawley rat at 20 mg/kg, po administered as single dose; format: ADME, organism-based; conditions: in vivo
[17] = Half life in Sprague-Dawley rat at 5 mg/kg, iv administered as single dose; format: ADME, organism-based; design: dose 5 mg/kg, route intravenous; conditions: in vivo
[18] = test system: Mycobacterium tuberculosis; experiment: microbe, parasite or virus in culture; conditions: H37Rv; remark: listed apart in the source
Description: Antitubercular activity against Mycobacterium tuberculosis H37Rv by LORA method

[19] = Cmax in CD1 mouse plasma at 40 mg/kg, po administered as single dose; format: ADME, organism-based; design: dose 40 mg/kg, route oral
[20] = Half life in CD1 mouse plasma at 40 mg/kg, po administered as single dose; format: ADME, organism-based; design: dose 40 mg/kg, route oral
physchem [21] = conditions: water, pH 7
Description: Solubility of the compound in water at pH 7.0 by HPLC

in vitro [22] = conditions: CD1, mouse, liver microsomes
Description: Metabolic stability in CD1 mouse liver microsomes assessed as compound remaining after 1 hr

[23] = Metabolic stability in human liver microsomes after 1 hr at 37 degC; format: ADME, Microsome; conditions: read-out: Stability
[24] = Ratio of AUC (0-infinity) in lung to AUC (0-infinity) in plasma of CD1 mouse at 40 mg/kg, po administered as single dose; format: ADME, organism-based; design: dose 40 mg/kg, route oral
[25] = AUClast in Sprague-Dawley rat at 1 mg/kg, iv administered as single dose; format: ADME, organism-based; design: time 0 - last, dose 1 mg/kg, route intravenous; conditions: plasma
[26] = Cmax in Sprague-Dawley rat at 1 mg/kg, iv administered as single dose; format: ADME, organism-based; design: dose 1 mg/kg, route intravenous; conditions: in vivo
[27] = Tmax in Sprague-Dawley rat at 1 mg/kg, iv administered as single dose; format: ADME, organism-based; design: dose 1 mg/kg, route intravenous; conditions: in vivo
[28] = Half life in Sprague-Dawley rat at 1 mg/kg, iv administered as single dose; format: ADME, organism-based; design: dose 1 mg/kg, route intravenous; conditions: in vivo

SMILES | AUC(0-t) [1] | MIC [2] | AUC(0-inf) [3] | solubility (physchem [4]) | solubility thermodynamic [5] | AUC(0-inf) [6] | Tmax [7] | Cmax [8] | solubility thermodynamic [9] | Tmax [10] | Cmax [11] | remaining at 1 h (in vitro [12]) | half-life [13] | AUC(0-t) [15] | bioavailability [16] | MIC [18] | Cmax [19] | half-life [20] | solubility (physchem [21]) | remaining at 1 h (in vitro [22]) | also measured
O=[N+]([O-])c1cn2c(n1)OC[C@@H](OCc1cnc(-c3ccc(OC(F)(F)F)cc3)cn1)C2 | 16300 ng·h/mL | 0.023 µM (≈ 0.0101 µg/mL) | 152000 ng·h/mL | 2.8 µg/mL (≈ 6.4 µM) | 0.44 µg/mL (≈ 1.01 µM) | > 324000 ng·h/mL | 5 h | 7000 ng/mL | 0.44 µg/mL (≈ 1.01 µM) | 0.167 h | 23000 ng/mL | 98% | > 8 h | 29400 ng·h/mL | 45% | 1 µM (≈ 0.437 µg/mL) | 9600 ng/mL | 7.2 h |  |  | Cmax [14]: 3900 ng/mL; half-life [17]: 24 h
O=[N+]([O-])c1cn2c(n1)OC[C@@H](OCc1ccc(-c3ccc(OC(F)(F)F)cc3)cn1)C2 | 35900 ng·h/mL | 0.065 µM (≈ 0.0284 µg/mL) | 418000 ng·h/mL |  |  | 427000 ng·h/mL | 6 h | 16000 ng/mL |  | 0.083 h | 35000 ng/mL |  | 8.2 h | 66700 ng·h/mL | 46% | 3.7 µM (≈ 1.61 µg/mL) | 26000 ng/mL | 5.4 h |  |  | Cmax [14]: 8700 ng/mL; half-life [17]: > 6 h
COc1ccc(-c2ccc(CO[C@@H]3COc4nc([N+](=O)[O-])cn4C3)cc2)cn1 |  | 0.045 µM (≈ 0.0172 µg/mL) |  |  |  |  |  |  |  |  |  | 40% |  |  |  | 0.61 µM (≈ 0.233 µg/mL) |  |  | 4.4 µg/mL (≈ 11.5 µM) | 6% | remaining at 1 h [23]: > 50%
O=[N+]([O-])c1cn2c(n1)OC[C@@H](OCc1ccc(-c3ccc(OC(F)(F)F)c(F)c3)cn1)C2 |  | 0.05 µM (≈ 0.0227 µg/mL) | 137000 ng·h/mL | 334 µg/mL (≈ 735 µM) | 1.5 µg/mL (≈ 3.3 µM) | 155000 ng·h/mL |  |  | 67 µg/mL (≈ 147 µM) |  | 9100 ng/mL | 97% | 7.9 h |  |  | 1.3 µM (≈ 0.591 µg/mL) | 7600 ng/mL | 8.4 h | 30 µg/mL (≈ 66 µM) | 86% | Kp [24]: 1.1
O=[N+]([O-])c1cn2c(n1)OC[C@@H](OCc1ccc(-c3ccc(C(F)(F)F)cn3)cc1)C2 |  | 0.06 µM (≈ 0.0252 µg/mL) | 20000 ng·h/mL | 5.1 µg/mL (≈ 12.1 µM) | 0.42 µg/mL (≈ 0.999 µM) | 67000 ng·h/mL |  |  | 0.84 µg/mL (≈ 2 µM) |  | 34000 ng/mL | 93% | 10 h |  |  | 1 µM (≈ 0.42 µg/mL) | 1100 ng/mL | 8.8 h | 0.2 µg/mL (≈ 0.476 µM) | 90% | Kp [24]: 3.4
O=[N+]([O-])c1cn2c(n1)OC[C@@H](OCc1ccc(-c3ccc(OC(F)(F)F)c(F)c3)nc1)C2 |  | 0.025 µM (≈ 0.0114 µg/mL) | 175000 ng·h/mL | 71 µg/mL (≈ 156 µM) | 0.32 µg/mL (≈ 0.704 µM) | 251000 ng·h/mL | 6 h | 7200 ng/mL | 34 µg/mL (≈ 74.8 µM) |  | 12000 ng/mL | 100% | 12 h | 129000 ng·h/mL | 93% | 0.93 µM (≈ 0.423 µg/mL) | 7000 ng/mL | 14 h | 3 µg/mL (≈ 6.6 µM) | 90% | AUC(0-t) [25]: 6970 ng·h/mL; Kp [24]: 1.4; Cmax [26]: 530 ng/mL; Tmax [27]: 4.98 min; half-life [28]: 33 h
O=[N+]([O-])c1cn2c(n1)OC[C@@H](OCc1ccc(-c3ccc(OC(F)(F)F)cc3)nc1)C2 [TBA-354] | 12100 ng·h/mL | 0.05 µM (≈ 0.0218 µg/mL) | 296000 ng·h/mL |  | < 0.1 µg/mL | 81000 ng·h/mL | 5 h | 8100 ng/mL |  | 0.083 h | 18000 ng/mL | 83% | 2.2 h | 30100 ng·h/mL | 62% | 0.54 µM (≈ 0.236 µg/mL) | 12000 ng/mL | 24 h |  | 87% | solubility ([9]; buffer): 45 µg/mL (≈ 103 µM); Cmax [14]: 3900 ng/mL; half-life [17]: > 6 h
